Data on 74 molecules can be found in ChEMBL document CHEMBL3507680, “University of Dundee, Gates Library screen for HepG2 cell viability”.

Structures are written as SMILES.

The data set in a line: Human HepG2 cell viability assay in 384 well format. As to conditions: HepG2 cells, read-out: Inhibition. The format is toxicity, cell-based. More on the design: dose 125 nL, time 70.5 hour; concentration not given beside the values.
For `O=C(NCCCN1CCCC1=O)Nc1ccc(Br)cc1Cl`, the cytotoxicity at 70.5 h is -3.68%. As for `O=C(Nc1cc(-c2cccnc2)no1)C1CCC1`, the cytotoxicity at 70.5 h was -13%. `O=C(Nc1cc(-c2ccccn2)no1)C1CC1`: the cytotoxicity at 70.5 h is 11.7%. Take `CCCNC(=O)c1cc(C(C)C)nc(N2CCCCC2)n1`: the cytotoxicity at 70.5 h worked out at 3.03%. With `CC(C)c1cc(C(=O)NCCN2CCOCC2)nc(N2CCCC2)n1`, the cytotoxicity at 70.5 h was -3.85%.

Take `Cc1ccnc(NC(=O)c2cccc(OCc3nnnn3C)c2)c1`: the cytotoxicity at 70.5 h is -17.9%. In the case of `Cc1ccc(NC(=O)c2cccc(OCc3nnnn3C)c2)nc1`, the cytotoxicity at 70.5 h was -9.18%.

For the molecule `CC(C)n1cc(N2CC(C(=O)N3CCN(C)CC3)CC2=O)cn1` (centres undefined), the cytotoxicity at 70.5 h was -10.8%. Then `CC(C)n1cc(N2CC(C(=O)N3CCCC3)CC2=O)cn1` (centres undefined), with -6.71%; and `COC(=O)CCn1ccc(=O)c2cc(OC)ccc21`, with -0.582%; and `Oc1ccccc1-c1n[nH]c(C2CC2)n1`, with 11.6%.

As for `Cc1cc2nc(O)c(O)nc2cc1S(=O)(=O)NC1CC1`, the cytotoxicity at 70.5 h is -12.3%. As to `CCn1nc(C)c2nc(C(C)C)nc(NCCCO)c21`, the cytotoxicity at 70.5 h was -16.2%. In the case of `CCCc1nc(NCCCO)c2c(n1)c(C)nn2CC`, the cytotoxicity at 70.5 h is -14%. On to `CCNC(=O)c1nnn(Cc2ccccc2)c1OC`, for which the cytotoxicity at 70.5 h was -7.02%. As for `CCN(CC)C(=O)c1nnn(Cc2ccccc2)c1OC`, the cytotoxicity at 70.5 h turned out to be 0.599%. Turning to `CC(=O)Nc1ncc(S(=O)(=O)Nc2ccc(F)cc2F)s1`, the cytotoxicity at 70.5 h was -0.452%. For `COC(=O)c1cccc(NS(=O)(=O)c2cnc(NC(C)=O)s2)c1`, the cytotoxicity at 70.5 h is -1.8%. In the case of `O=C(Cn1cc(I)cn1)N1CCc2ccccc2C1`, the cytotoxicity at 70.5 h was -3.15%. Turning to `CCc1nc(NCCCn2cccn2)c2c(n1)c(C)nn2C`, the cytotoxicity at 70.5 h was -1.69%.

For the molecule `CCc1nc(NCCCOC)c2c(n1)c(C)nn2C`, the cytotoxicity at 70.5 h is -13.4%.

For `CCn1nccc1CNC(=O)C(C)n1cc2c(n1)c(C)nn2C` (centres undefined), the cytotoxicity at 70.5 h worked out at 3.69%.

For `Cc1cc(C(F)(F)F)nn1CC(C)C(=O)Nc1ccncc1` (centres undefined), the cytotoxicity at 70.5 h came out at 1.22%. Then `Cc1cc(C(F)(F)F)nn1C(C)C(=O)Nc1ccncc1` (centres undefined), with 23.9%; and `COc1ccc(CNC(=O)c2nn(C)c3c2CS(=O)(=O)CC3)cc1OC`, with 1.56%. As to `Cc1nn(C)c2c(N3CCN(C(=O)C4CCC4)CC3)ncnc12`, the cytotoxicity at 70.5 h was -5.94%. In the case of `CN(C)C(=O)CNC(=O)CCn1ncc2c(Cl)cccc21`, the cytotoxicity at 70.5 h was -5.6%. In the case of `O=C(NCc1ccccc1)c1nnc2ccc(N3CCOCC3)cc2n1`, the cytotoxicity at 70.5 h was 4.86%. `CCCNC(=O)c1cnc(N(C)C)nc1COC`: the cytotoxicity at 70.5 h is -5.33%.

Regarding `COc1ccccc1CNC(=O)Cn1ncc2c1c(C)nn2C`, the cytotoxicity at 70.5 h came to 0.128%. In the case of `CCN(CC)C(=O)c1ccn(COc2cc(C)cc(C)c2)n1`, the cytotoxicity at 70.5 h was 4.47%.

Regarding `CCN(CC)CCNC(=O)c1ccn(COc2cc(C)cc(C)c2)n1`, the cytotoxicity at 70.5 h was -3.13%.

As for `CCCN1CCN(C(=O)C(C)n2cc(Br)cn2)CC1` (centres undefined), the cytotoxicity at 70.5 h was -7.56%. As to `Cc1cccc2c1cnn2CCCNC(=O)C(C)C`, the cytotoxicity at 70.5 h was -10%. Take `CC1(C)CC(N2Cc3nc(N)ncc3C2=O)CC(C)(C)N1`: the cytotoxicity at 70.5 h was -8%. For `CCOc1ccc(N2CCCN=C2NC(=O)c2cccc(Cl)c2)cc1`, the cytotoxicity at 70.5 h was -9.1%.

For the molecule `CCOC(=O)CNC(=O)N1CCN(c2ncccn2)CC1`, the cytotoxicity at 70.5 h is -4.84%. In the case of `CC(C)c1ccc(OCn2ccc(C(=O)N3CCCC3)n2)cc1`, the cytotoxicity at 70.5 h was -4.33%. `Cc1nc(NCCc2ccc(Cl)cc2)cc(C(=O)N2CCOCC2)n1`: the cytotoxicity at 70.5 h was -7.59%. `CC(C(=O)NCCCn1ccnc1)n1cc(Br)cn1` (centres undefined): the cytotoxicity at 70.5 h is -9.82%. As to `Cc1nn(CC(=O)N2CCN(c3ccccc3F)CC2)c(C)c1Cl`, the cytotoxicity at 70.5 h is -2.28%. For the molecule `CCC(C)c1noc(C2CCN(C(=O)c3cccnc3)CC2)n1` (centres undefined), the cytotoxicity at 70.5 h is -12.8%. For `CCn1cc(Br)c(C(=O)NCc2cnn(C)c2)n1`, the cytotoxicity at 70.5 h is -13.6%. Then `CCn1cc(CN2C[C@@H]3CCCN3C[C@H]2CCSC)c(C)n1`, with -4.8%.

`Cc1cc(N(C)C)nc(C2(C)CCCN2C(=O)c2ccccc2)n1` (centres undefined): the cytotoxicity at 70.5 h is -8.94%. Then `OCCN1CCC(c2cncc(-c3cccc(Cl)c3)n2)CC1`, with -3.96%; and `c1cc(N2CCCC2c2cnccn2)ncn1` (centres undefined), with -10%. `Cc1cc(N2CCCC2c2nccnc2C)ncn1` (centres undefined): the cytotoxicity at 70.5 h was -5.86%. As for `CN1CCCC1c1ccnc(C(=O)N(C)C2CCCCC2)c1` (centres undefined), the cytotoxicity at 70.5 h is -11.9%. Consider `CC(=O)N1CCC(c2cc(Nc3ncccn3)nc(C)n2)C1` (centres undefined), for which the cytotoxicity at 70.5 h is -6.88%. Then `COCC(=O)N1CCCCC1c1ccnc(Nc2ncc(C)s2)n1` (centres undefined), with -0.578%; and `O=C(c1cncnc1)N1C[C@@H]2CC[C@H](Oc3cccc(F)c3)[C@@H]2C1`, with -8.85%.

With `Cc1cc(C)nc(Nc2cncc(C3CCCN(S(C)(=O)=O)C3)n2)n1` (centres undefined), the cytotoxicity at 70.5 h stood at 33.8%. Regarding `Cc1cccc(-c2cccc(CC3(C(=O)O)CCOCC3)c2)c1`, the cytotoxicity at 70.5 h is 9.91%. Take `COCCN1CCC(c2cncc(N(C)C)n2)CC1`: the cytotoxicity at 70.5 h was determined as 16.5%. Regarding `O=C(C1CC1)N1CCC(c2nc(O)c3c(n2)CN(C2CCCC2)CC3)C1` (centres undefined), the cytotoxicity at 70.5 h worked out at 9.71%. With `COCCC(=O)N1CCC(c2nc(O)cc(-c3ccncc3)n2)C1` (centres undefined) the figure was -11.8%; with `Cc1c(C2CCCN(C(=O)c3ccn(C)n3)C2)n2c(nc1=O)CCC2` (centres undefined), -7.35%.

Consider `CC(=O)Nc1nc(C2CCN(C(=O)Cc3ccccc3)CC2)cs1`, for which the cytotoxicity at 70.5 h is -5.09%. Turning to `COCCN1CCCC(CCCc2ccccn2)(C(N)=O)C1` (centres undefined), the cytotoxicity at 70.5 h is -6.05%.

With `CC(=O)N1CCN(C(C)C)CC(COc2ccccc2)C1` (centres undefined), the cytotoxicity at 70.5 h was -6.04%. Take `COCCN1CCC(Cc2cncc(-c3ccc(C(=O)O)cc3)n2)CC1`: the cytotoxicity at 70.5 h came to 8.54%. With `Cc1cc(CN2CCOC(C)(C(=O)N3CCOCC3)C2)no1` (centres undefined) the figure was -2.61%.

With `CC1(C(=O)N2CCOCC2)CN(Cc2cccnc2)CCO1` (centres undefined), the cytotoxicity at 70.5 h is -8.77%. Then `CN(C)C(=O)C1CN(Cc2ccsc2)CCN(S(C)(=O)=O)C1` (centres undefined), with -6.36%; and `CN(C)C(=O)C1CN(Cc2ccccn2)CCN(S(C)(=O)=O)C1` (centres undefined), with -3.97%; and `NC(=O)C1(CCCc2ccncc2)CCCN1` (centres undefined), with -3.08%.

Regarding `CN1CCC(c2cncc(N(C)C)n2)CC1`, the cytotoxicity at 70.5 h is -4.58%. Then `O=c1[nH]c(N2CCCCC2)nc2c1CCN(Cc1cccnc1)C2`, with -6.55%; and `Cc1cc(-c2cnc(NC3CCCCC3)nc2-c2ccco2)on1`, with -9.46%; and `Cc1c(C(=O)N2CCCC(n3nnc4cc(F)ccc43)C2)cnn1C` (centres undefined), with -14.1%.

For `C=Cn1cc(CN2CCc3nc(-c4cccnc4)nc(O)c3C2)c(C)n1`, the cytotoxicity at 70.5 h was -3.49%.

In the case of `Cc1c(C2CCCN(C(=O)c3ccncc3)C2)n2c(nc1=O)CCC2` (centres undefined), the cytotoxicity at 70.5 h was -9.8%. Turning to `Cc1cnc(C(=O)N2CCCC(c3c(C)c(=O)nc4n3CCC4)C2)cn1` (centres undefined), the cytotoxicity at 70.5 h is -7.55%.
